Data taken from patent US20260021108A1, “USE OF INHIBITORS OF THE HIPPO SIGNALLING PATHWAY FOR THE TREATMENT OF CHRONIC NEPHROPATHIES” (INSTITUT NATIONAL DE LA SANTÉ ET DE LA RECHERCHE MÉDICALE, priority 2022, published 2026).

Tests used:
mIMCD-3 renal cells [1] = experiment: NPH-cytokine signature mRNA abundance (qRT-PCR) in confluent mIMCD-3 cells; assay type: cell-based, Mouse; details: n=3
Method: Mouse inner medullary collecting duct (mIMCD-3) cells were grown in DMEM/F-12 (1:1, GIBCO, 21331-020) supplemented with 10% FBS, 1% penicillin-streptomycin and 2 mM L-Glutamine (GIBCO, 25030-024). A total of 50,000 cells/cm^2 were seeded for 3 days on 12 well plate. Confluent mIMCD-3 cells were stimulated with 5 μM XMUMP-1 (Selleckchem, S8334), or 10 μM Lats-IN-1 (MedChemExpress, HY-138489) or 0.04% DMSO. For bacteria experiment, mIMCD-3 cells were starved overnight prior stimulation and then stimulated for 6 hours with 5 μM XMU-MP-1 or 0.04% DMSO with or without 1.108/mL UPEC.
(§1) Total RNAs were obtained from cells using RNeasy Mini Kit (Qiagen) and reverse transcribed using High Capacity cDNA Reverse Transcription Kit (Applied Biosystems) according to the manufacturer's protocol. Quantitative PCR were performed with iTaq™ Universal SYBR® Green Supermix (Bio-Rad) on a CFX384 C1000 Touch (Bio-Rad). Hprt, Sdha, Gapdh and Ppia were used as normalization controls. Each biological replicate was measured in technical duplicates.
Data are expressed as means+/−standard deviation. Differences between groups were evaluated using unpaired t test when only 2 groups were evaluated or one-way ANOVA followed, when significant (P<0.05), by the Tukey-Kramer test. The statistical analysis was performed using GraphPad Prism V8 software.

MDCK renal cells [2] = experiment: Ccl2 and Cxcl10 mRNA response to UPEC in confluent MDCK cells; assay type: cell-based, Dog; details: 6 hours, n=5
Method: (§2) Uropathogen E. coli (UTI89 strain, UPEC) bacteria strains were grown as previously described (Zychlinsky Scharff et al., 2019). Inactivation of bacteria was performed on bacteria resuspended at a concentration of 109/ml in PBS and heated at 60° C. for one hour.
Madin-Darby canine kidney cells (MDCK, kind gift from Prof. Kai Simons, MPI-CBG, Dresden, Germany) were cultured using DMEM (GIBCO, 41966-029) supplemented with 10% FBS (GIBCO, 10270-106) and 1% penicillin-streptomycin (GIBCO, 15140-122). A total of 200,000 cells/cm^2 were seeded for 10 days on 12 well plate (Corning, 353043). Confluent MDCK cells were stimulated for 6 hours with 5 μM XMU-MP-1 (Selleckchem, S8334) or 0.04% DMSO. […]
(§3) Total RNAs were obtained from cells using RNeasy Mini Kit (Qiagen) and reverse transcribed using High Capacity cDNA Reverse Transcription Kit (Applied Biosystems) according to the manufacturer's protocol. Quantitative PCR were performed with iTaq™ Universal SYBR® Green Supermix (Bio-Rad) on a CFX384 C1000 Touch (Bio-Rad). […] Each biological replicate was measured in technical duplicates.
(§4) Data are expressed as means+/−standard deviation. Differences between groups were evaluated using unpaired t test when only 2 groups were evaluated or one-way ANOVA followed, when significant (P<0.05), by the Tukey-Kramer test. […]

mIMCD-3 renal cells [3] = experiment: Inflammatory cytokine mRNA response to heat inactivated uropathogenic Escherichia coli (UPEC) in mIMCD-3 cells; assay type: cell-based, Mouse; details: confluent mIMCD-3 cells, 5 μM XMU-MP-1 and heat inactivated UPEC, 6 hours, n=7-10
Method: as §2
Mouse inner medullary collecting duct (mIMCD-3) cells were grown in DMEM/F-12 (1:1, GIBCO, 21331-020) supplemented with 10% FBS, 1% penicillin-streptomycin and 2 mM L-Glutamine (GIBCO, 25030-024). A total of 50,000 cells/cm^2 were seeded for 3 days on 12 well plate. Confluent mIMCD-3 cells were stimulated with 5 μM XMUMP-1 (Selleckchem, S8334), or 10 μM Lats-IN-1 (MedChemExpress, HY-138489) or 0.04% DMSO. […]
as §3, §4

MDCK renal cells [4] = experiment: NPH-cytokine signature mRNA abundance (qRT-PCR) in confluent MDCK cells; assay type: cell-based, Dog; details: 5 μM XMU-MP-1, 6 hours, n=3-6
Method: Madin-Darby canine kidney cells (MDCK, kind gift from Prof. Kai Simons, MPI-CBG, Dresden, Germany) were cultured using DMEM (GIBCO, 41966-029) supplemented with 10% FBS (GIBCO, 10270-106) and 1% penicillin-streptomycin (GIBCO, 15140-122). A total of 200,000 cells/cm^2 were seeded for 10 days on 12 well plate (Corning, 353043). Confluent MDCK cells were stimulated for 6 hours with 5 μM XMU-MP-1 (Selleckchem, S8334) or 0.04% DMSO. For bacteria experiment, MDCK cells were starved overnight prior stimulation and then stimulated for 6 hours with 5 μM XMU-MP-1 or 10 μM Lats-IN-1 (MedChemExpress, HY-138489) with or without 1.108/mL UPEC. All cells were regularly tested for mycoplasma contamination and were mycoplasma-free.
as §1, §4

SMILES | NPH-cytokine signature (Ctgf, Cyr61, Ccl2, Ccl5, Cx3cl1, Cxcl1, Cxcl10, Cxcl16, Cxcl17, Il1rn, Il33, Il34, Lgals9 mRNA abundance) (mIMCD-3 renal cells [1]; 10 μM Lats-IN-1, 6 hours) | inflammatory response to bacteria (Ccl2 and Cxcl10 mRNA abundance) (MDCK renal cells [2]; 10 μM Lats-IN-1 and UPEC) | NPH-cytokine signature (Ctgf, Cyr61, Ccl2, Ccl5, Cx3cl1, Cxcl1, Cxcl10, Cxcl16, Cxcl17, Il1rn, Il33, Il34, Lgals9 mRNA abundance) (mIMCD-3 renal cells [1]; 5 μM XMU-MP-1, 6 hours) | inflammatory response to uropathogenic bacteria (cytokine mRNA abundance) (mIMCD-3 renal cells [3]) | NPH-cytokine signature (Ctgf, Cyr61, Ccl2, Ccl5, Cx3cl1, Cxcl10, Cxcl16, Cxcl17, Il1rn, Il34 mRNA abundance) (MDCK renal cells [4]) | inflammatory response to bacteria (Ccl2 and Cxcl10 mRNA abundance) (MDCK renal cells [2]; 5 μM XMU-MP-1 and UPEC)
O=C(N=c1sccn1Cc1ccccc1)c1c[nH]c2ncccc12 [Lats-IN-1, N-(3-benzylthiazol-2(3H)-ylidene)-1H-pyrrolo[2,3-b]pyridine-3-carboxamide] | suppresses partially NPH-cytokine signature | reduces NPH-cytokine signature and inflammatory response to bacteria | – | – | – | –
CN1C(=O)c2sccc2N(C)c2nc(Nc3ccc(S(N)(=O)=O)cc3)ncc21 [XMU-MP-1, 4-[(6, 10-Dihydro-5, 10-dimethyl-6-oxo-5H-pyrimido[5,4-b]thieno[3,2-e][1,4]diazepin-2-yl)amino]benzenesulfonamide] | – | – | suppresses NPH-cytokine signature | blunts inflammatory response to uropathogenic bacteria | reduces NPH-cytokine signature | reduces NPH-cytokine signature and inflammatory response to bacteria
